Series [1] is described as follows: Equilibrium concentration (solubility) study in water. The format is physicochemical. Conditions: distilled water; raw IMB16-4 in water, 25 ± 2 °C, equilibrium about 24 h. Here is the method:
An excess amount of raw IMB16-4 was added into 5 mL of distilled water at 25 ± 2 °C. The raw IMB16-4 solution at equilibrium time (about 24 h) was withdrawn and filtered using a 0.22 μm membrane. The subsequent filtrate was diluted with internal standard (4′-Chloroacetanilide) acetonitrile solution and analyzed by HPLC-MS/MS analysis (Thermo LTQ XL, USA). The standard curve for IMB16-4 was the linear (R^2 > 0.992) over the concentration range of 0.3~1200.0 ng/mL. The quantitative ion pair of IMB16-4 and internal standard quantitative were m/z = 499.9/196.0 and m/z = 168.04/126.1, respectively.

Series [2] is described as follows: In vitro dissolution, USP II paddle method. In kind it is physicochemical. Particulars: release medium, 12 h, 37 °C, 3% SDS. Here is the method: Dissolution studies were conducted using a USP II paddle method (100 rpm, 37 °C, and 900 mL dissolution medium) with a dissolution tester (ZRS-8LD, China). The release of IMB16-4 and IMB16-4-MSNs was performed in pH 1.0 hydrochloric acid solution and pH 6.8 phosphate buffer solutions, containing 3% (w/v) SDS, respectively. All release studies were carried out in triplicate. At predetermined time intervals, 5 mL of sample solution was withdrawn from the release medium and filtered using a 0.22 μm membrane filter before running the HPLC analysis. An equivalent amount of fresh medium was added to maintain a constant dissolution volume.

For series [3], the system named is α-SMA, TGF-β1 and MMP2 protein levels in LX-2 cells. Kind of series: In vitro antifibrotic effects, Western blot of hepatic fibrogenic markers after TGFβ1 stimulation. Particulars: IMB16-4 2 µM, TGFβ1 2 ng/mL, 24 h. The format is cell-based, human. Here is the method:
After ultraviolet sterilization, raw IMB16-4, IMB16-4-MSNs and MSNs were suspended in water, respectively. Another group of raw IMB16-4 was suspended in DMSO. The concentration of IMB16-4 was 2 mM. Then, 2µL of solution containing IMB16-4 was added into 2 mL of serum-free culture with TGFβ1. LX-2 cells were cultured as described above. LX-2 cells were seeded in a 6-well plate, cultured in DMEM/GlutaMAX I, containing 10% fetal bovine serum (FBS) in 5% CO2 atmosphere at 37 °C. Serum-free culture was replaced until the cells reached 90 ≈ 95% confluence. After 24 h, cells were treated with TGFβ1 (2 ng/mL) and IMB16-4 (2 µM) for 24 h. Then, cells were washed with phosphate buffer saline (PBS) and protein was extracted in radio-immunoprecipitation assay (RIPA) buffer. Then mixture was centrifuged at 12,000 rpm at 4 °C for 20 min. The supernatant was collected, and the total protein was determined using the bicinchoninic acid (BCA) protein assay kit (Beyotime Biotechnology, China). Samples were applied to the 10% SDS-PAGE gel. Then, the protein bands were transferred to a polyvinylidene difluoride (PVDF) membrane (Millipore Corp, Atlanta, GA, USA) and the membrane was blocked for 1 h with 5% nonfat milk. […] The protein bands were analyzed on an imager (Tanon5200, China).
For orientation: A western blot detects proteins with antibodies after separation by electrophoresis.

Series [4] can be described thus: Oral pharmacokinetics study. Conditions: SD rats, oral gavage 100 mg/kg. In kind it is in vivo, Sprague–Dawley (SD) rats. On the procedure: The mice were maintained under a specific pathogen-free (SPF) environment with a 12 h light/dark cycle. SD rats (body weight 200 ± 20 g) were fasted overnight and divided into two groups. Raw IMB16-4 and IMB16-4-MSNs were given orally by gavages at a dose of 100 mg/kg, respectively. Before administering, both IMB16-4-MSNs and raw IMB16-4 were dispersed in 0.5% CMC-Na aqueous solution, respectively. Blood samples were collected from the eye socket vein at time points of 0.17, 0.5, 1, 2, 3, 4, 6, 8 and 12 h after dosing. Plasma samples were collected by centrifuging at 3000 rpm for 10 min and were then stored at −20 °C until analysis. Plasma samples were mixed with internal standard (4′-Chloroacetanilide) acetonitrile solution. Then, the mixture was vortex-mixed for 10 s. After centrifugation at 15,000 rpm for 10 min, the supernatant was used for HPLC-MS/MS analysis (AB SCIEX 6500 Qtrap, USA). The condition of the capillary voltage was −4500 V. The temperature was 500 °C. The mobile phase comprised acetonitrile and 10 mM of ammonium acetate aqueous solution. Analysis was carried out on an Xselect HSS T3 column (2.1 × 100 mm, 2.5 μm, Waters) in gradient elution. The column temperature was 40 °C and the flow rate was 0.3 mL/min. The standard curve for IMB16-4 was the linear (R^2 > 0.992) over the concentration range of 4~2048 ng/mL. The quantitative ion pairs of IMB16-4 and internal standard quantitative were m/z = 500.0/195.7 and m/z = 168.0/126.1, respectively. The pharmacokinetic parameters were obtained using statistic software DAS2.0.

A further series deals with NAFLD model rats. Further details: method as in PMID 23752471, PMID 30573812. Conditions: NAFLD model rats ref 18, 19; cited from earlier work.

In brackets after ≈: the same amount, converted by molar mass.

For orientation: solubility means the dissolved amount per volume that the medium holds. Lower therefore signals a poorly soluble substance. One may read the Tmax as the time at which the peak concentration occurs. By Cmax is commonly meant the peak of the concentration-time curve.

The molecule `O=C(Nc1cc(Cl)c(Cl)c(Cl)c1)c1ccccc1NS(=O)(=O)c1cccc([N+](=O)[O-])c1` [IMB16-4, N-(3,4,5-trichlorophenyl)-2(3-nitrobenzenesulfonamido) benzamide] gave a solubility in series [1] of 0.0432 ± 0.0091 µg/mL (≈ 0.0863 µM). Further, in series [2], the “amount of dissolved IMB16-4” value was “about 40%”. The “protein levels of α-SMA, TGF-β1 and MMP2 (antifibrotic effect)” value is on record as “showed potential anti-liver fibrosis effects. However, the differences are not significant” in series [3] (dissolved by DMSO) and “poor inhibition effect” in series [3] (suspended in sterile water). In series [4], the CLz/F stood at 54.70 ± 23.57. In addition, the Tmax in series [4] (Sprague-Dawley, rat, plasma) stood at 3.43 ± 1.4 h. Besides, the Cmax in series [4] (Sprague-Dawley, rat, plasma, in 0.5% CMC-Na) amounted to 180 ± 40 ng/mL. In series [4] (Sprague-Dawley, rat, plasma, read-out: AUC0≈12 h), the AUC is 1240 ± 310 ng·h/mL. Also, the MRT in series [4] (Sprague-Dawley, rat, plasma, read-out: MRT0≈12 h) came to 5.18 ± 0.77 h.
For the molecule “N-(3,4-dichlorophenyl)-2-(3-trifluoromethoxy) benzamide [IMB17-15]”, the hepatoprotective effects result in the series with NAFLD model rats is “has hepatoprotective effects”.
